The values below come from EP1389624A1, “Phosphorous-containing cysteine and serine protease inhibitors” (CEPHALON, INC., priority 1995, dated 1997).

The assay has as its target T1, Calpain I (Homo sapiens, UniProt P07384).
T1 sequence (P07384 1-714): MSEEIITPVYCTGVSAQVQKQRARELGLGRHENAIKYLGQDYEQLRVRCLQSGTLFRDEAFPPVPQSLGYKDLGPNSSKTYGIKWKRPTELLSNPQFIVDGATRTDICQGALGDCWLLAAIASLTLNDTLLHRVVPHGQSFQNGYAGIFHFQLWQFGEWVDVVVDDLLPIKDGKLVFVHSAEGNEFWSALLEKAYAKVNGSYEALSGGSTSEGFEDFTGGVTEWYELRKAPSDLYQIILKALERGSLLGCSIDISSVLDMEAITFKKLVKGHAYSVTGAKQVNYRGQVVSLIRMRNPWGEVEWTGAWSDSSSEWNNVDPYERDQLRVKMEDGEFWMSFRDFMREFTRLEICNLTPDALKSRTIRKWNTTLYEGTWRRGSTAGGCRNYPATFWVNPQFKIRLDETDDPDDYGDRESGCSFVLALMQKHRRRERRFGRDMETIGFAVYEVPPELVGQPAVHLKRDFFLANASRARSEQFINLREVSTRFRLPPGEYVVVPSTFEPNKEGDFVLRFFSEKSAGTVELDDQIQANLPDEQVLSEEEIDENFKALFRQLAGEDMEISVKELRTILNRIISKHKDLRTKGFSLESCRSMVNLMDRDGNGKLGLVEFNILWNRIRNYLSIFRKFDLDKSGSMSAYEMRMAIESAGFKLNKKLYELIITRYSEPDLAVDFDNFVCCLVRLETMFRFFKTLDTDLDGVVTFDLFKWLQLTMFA
T1 sequence (P04632 1-268 partner): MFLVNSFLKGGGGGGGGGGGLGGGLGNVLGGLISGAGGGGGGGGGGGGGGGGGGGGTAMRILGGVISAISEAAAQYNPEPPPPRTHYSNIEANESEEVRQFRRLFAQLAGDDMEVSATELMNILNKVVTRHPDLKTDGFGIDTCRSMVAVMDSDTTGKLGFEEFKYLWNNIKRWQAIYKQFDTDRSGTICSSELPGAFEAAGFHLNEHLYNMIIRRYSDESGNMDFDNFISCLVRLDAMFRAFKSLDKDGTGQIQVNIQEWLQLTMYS
In words: Inhibition and rate of inactivation of cysteine protease (calpain I) activity, Succ-Leu-Tyr-MNA substrate hydrolysis. The conditions noted are these: for inhibition at 0.1 µM: read-out: % Inhib. @ 0.1 uM; for kinact/KI: read-out: kobs/I x 10^-3 M^-1s^-1; for kobs/I x 10^-3 M^-1s^-1: apparent second order rate constant of inactivation from reaction progress curves under pseudo-first order conditions, mean of three or more determinations.

Structures can show the parent of a compound that is named as a salt.

Experimental: To evaluate inhibitory activity, stock solutions (40 times concentrated) of each compound to be tested were prepared in 100% anhydrous DMSO and 5 µl of each inhibitor preparation were aliquoted into each of three wells of a 96 well plate. […] To start the reaction, 20 µl of 50 mM CaCl2 in assay buffer was added to all wells of the plate, excepting three, which were used as background signal baseline controls. Substrate hydrolysis was monitored every 5 minutes for a total of 30 minutes. Substrate hydrolysis in the absence of inhibitor was linear for up to 15 minutes.
Inhibition of calpain I activity was calculated as the percent decrease in the rate of substrate hydrolysis in the presence of inhibitor (vi) relative to the rate in its absence (vo). Comparison between vo and vi was made within the linear range for substrate hydrolysis. […] Apparent second order rate constants were determined from analysis of reaction progress curves under pseudo-first order conditions. Each determination represents the mean of three or more independent single cuvette analyses continually monitored via a Perkin-Elmer LS50B spectrofluorimeter.

Turning to `CC(C)C[C@H](NC(=O)OCc1ccccc1)C(=O)N[C@@H](Cc1ccccc1)C(=O)COP(=O)(OCCc1ccccc1)OCCc1ccccc1` [Example 46, Diphenethyl (3S)-[3-[(N-Benzyloxycarbonyl-L-leucyl)amino]-2-oxo-4-phenylbutyl] phosphate], the inhibition at 0.1 µM was 99% and the kinact/KI stood at 380000 M⁻¹ s⁻¹. As for `CC(C)C[C@H](NC(=O)OCc1ccccc1)C(=O)N[C@@H](Cc1ccccc1)C(=O)COP1(=O)OCC(OCc2ccccc2)CO1` (stereo partly drawn) [Example 47], the inhibition at 0.1 µM worked out at 47%. On the same count and under the same terms, next, `CC(C)C[C@H](NC(=O)OCc1ccccc1)C(=O)N[C@@H](Cc1ccccc1)C(=O)COP(=O)(OCc1ccccc1)c1ccccc1` (stereo partly drawn) [Example 49, Benzyl (3S)-[3-[(N-Benzyloxycarbonyl-L-leucyl)amino]-2-oxo-4-phenylbutyl]phenylphosphonate]: 90%. With `CC(C)C[C@H](NC(=O)OCc1ccccc1)C(=O)N[C@@H](Cc1ccccc1)C(=O)COP(=O)(OCCN1CCOCC1)c1ccccc1` (stereo partly drawn) [Example 50, 2-(Morpholin-4-yl)ethyl (3S)-[3-[(N-benzyloxycarbonyl-L-leucyl)amino]-2-oxo-4-phenylbutyl] phenylphosphonate hydrochloride], the kinact/KI was determined as 70000 M⁻¹ s⁻¹. Same read-out and setting: next, `CC(C)C[C@H](NC(=O)OCc1ccccc1)C(=O)N[C@@H](Cc1ccccc1)C(=O)COP(=O)(OCCN1CCCC1=O)c1ccccc1` (stereo partly drawn) [Example 51, (3S)-[3-[(N-Benzyloxycarbonyl-L-leucyl)amino]-2-oxo-4-phenylbutyl] 2-(2-oxopyrrolidin-1-yl)ethyl phenylphosphonate]: 26000 M⁻¹ s⁻¹; `CC(C)C[C@H](NC(=O)OCc1ccccc1)C(=O)N[C@@H](Cc1ccccc1)C(=O)COP(C)(C)=O` [Example 52, (3S)-[3-[(N-Benzyloxycarbonyl-L-leucyl)amino]-2-oxo-4-phenylbutyl] dimethylphosphinate]: 6000 M⁻¹ s⁻¹. Take `CCCCCP(=O)(CCCCC)OCC(=O)[C@H](Cc1ccccc1)NC(=O)[C@H](CC(C)C)NC(=O)OCc1ccccc1` [Example 53, (3S)-[3-[(N-Benzyloxycarbonyl-L-leucyl)amino]-2-oxo-4-phenylbutyl] dipentylphosphinate]: the inhibition at 0.1 µM worked out at 19%. `CC(C)C[C@H](NC(=O)OCc1ccccc1)C(=O)N[C@@H](Cc1ccccc1)C(=O)COP(=O)(CCc1ccccc1)CCc1ccccc1` [Example 54, (3S)-[3-[(N-Benzyloxycarbonyl-L-leucyl)amino]-2-oxo-4-phenylbutyl] bis(2-phenylethyl)phosphinate]: the inhibition at 0.1 µM was found to be 15% and the kinact/KI is 8000 M⁻¹ s⁻¹. For the compound `Cc1ccccc1P(=O)(OCC(=O)[C@H](Cc1ccccc1)NC(=O)[C@H](CC(C)C)NC(=O)OCc1ccccc1)c1ccccc1C` [Example 55, (3S)-[3-[(N-Benzyloxycarbonyl-L-leucyl)amino]-2-oxo-4-phenylbutyl] bis(2-methylphenyl)phosphinate], the kinact/KI was 31000 M⁻¹ s⁻¹. The same measure, in the same setting: next, `Cc1ccccc1P(=O)(OCC(=O)[C@H](Cc1ccccc1)NC(=O)[C@H](CC(C)C)NC(=O)OC(C)(C)C)c1ccccc1C` [Example 56, (3S)-[3-[(N-t-Butoxycarbonyl-L-leucyl)amino]-2-oxo-4-phenylbutyl] bis(2-methylphenyl)phosphinate]: 22000 M⁻¹ s⁻¹. For the compound `COc1ccc(P(=O)(OCC(=O)[C@H](Cc2ccccc2)NC(=O)[C@H](CC(C)C)NC(=O)OCc2ccccc2)c2ccc(OC)cc2)cc1` [Example 57, (3S)-[3-[(N-Benzyloxycarbonyl-L-leucyl)amino]-2-oxo-4-phenylbutyl] bis(4-methoxyphenyl)phosphinate], the inhibition at 0.1 µM worked out at 85% and the kinact/KI turned out to be 85000 M⁻¹ s⁻¹. `COc1ccccc1P(=O)(OCC(=O)[C@H](Cc1ccccc1)NC(=O)[C@H](CC(C)C)NC(=O)OCc1ccccc1)c1ccccc1` (stereo partly drawn) [Example 58, (3S)-[3-[(N-Benzyloxycarbonyl-L-leucyl)amino]-2-oxo-4-phenylbutyl] (2-methoxyphenyl)(phenyl)phosphinate]: the kinact/KI turned out to be 150000 M⁻¹ s⁻¹. Still for that read-out and setting: next, `COc1cccc(P(=O)(OCC(=O)[C@H](Cc2ccccc2)NC(=O)[C@H](CC(C)C)NC(=O)OCc2ccccc2)c2ccccc2)c1` (stereo partly drawn) [Example 59, (3S)-[3-[(N-Benzyloxycarbonyl-L-leucyl)amino]-2-oxo-4-phenylbutyl] (3-methoxylphenyl)(phenyl)phosphinate]: 163000 M⁻¹ s⁻¹. For the compound `CCP(=O)(OCC(=O)[C@H](Cc1ccccc1)NC(=O)[C@H](CC(C)C)NC(=O)OCc1ccccc1)c1ccccc1` (stereo partly drawn) [Example 60, (3S)-[3-[(N-Benzyloxycarbonyl-L-leucyl)amino]-2-oxo-4-phenylbutyl] (ethyl) (phenyl)phosphinate], the “kobs/I x 10^-3 M^-1s^-1” value is on record as 6 x 10^-3 M^-1s^-1 and the inhibition at 0.1 µM was found to be 51%. For the compound `CC(C)C[C@H](NC(=O)OCc1ccccc1)C(=O)N[C@@H](Cc1ccccc1)C(=O)COP1(=O)CC=CC1` [Example 63, (3S)-1-[[3-[(N-Benzyloxycarbonyl-L-leucyl)amino]-2-oxo-4-phenylbutyl]oxy]phosphol-3-ene 1-oxide], the inhibition at 0.1 µM is 22%. Turning to `CCOP(=O)(CC(=O)[C@H](Cc1ccccc1)NC(=O)[C@H](CC(C)C)NC(=O)OCc1ccccc1)c1ccccc1` (stereo partly drawn) [Example 64, Ethyl (3S)-[3-[(N-benzyloxycarbonyl-L-leucyl)amino]-2-oxo-4-phenylbutyl] (phenyl)phosphinate], the “kobs/I x 10^-3 M^-1s^-1” value was 4 x 10^-3 M^-1s^-1 and the inhibition at 0.1 µM was found to be 26%. For the compound `COP(=O)(O)C(=O)[C@H](CC(C)C)NC(=O)[C@H](CC(C)C)NC(=O)OCc1ccccc1` [Example 65, Methyl Hydrogen N-Benzyloxycarbonyl-L-leucyl-L-leucylphosphonate], the inhibition at 0.1 µM is 19%. Same read-out and setting: next, `CCCCOP(=O)(OCCCC)C(=O)[C@H](CC(C)C)NC(=O)[C@H](CC(C)C)NC(=O)OCc1ccccc1` [Example 66, Dibutyl N-Benzyloxycarbonyl-L-leucyl-L-leucylphosphonate]: 0%.

In the case of `CC(C)C[C@H](NC(=O)OCc1ccccc1)C(=O)N[C@@H](CC(C)C)C(=O)P(=O)(c1ccc(Cl)cc1)c1ccc(Cl)cc1` [Example 67, [Benzyloxycarbonyl-L-leucyl-L-leucyl]bis(4-chlorophenyl)phosphine oxide], the inhibition at 0.1 µM turned out to be 4%. Same read-out and setting: next, `CCOP(=O)(C(=O)[C@H](CC(C)C)NC(=O)[C@H](CC(C)C)NC(=O)OCc1ccccc1)c1ccccc1` (stereo partly drawn) [Example 68, Ethyl N-benzyloxycarbonyl-L-leucyl-L-leucyl(phenyl)phosphinate]: 0%. In the case of “(3S)-2-[3-[(N-Benzyloxycarbonyl-L-leucyl)amino]-2-oxo-4-phenylbutyl] 1H-phosphindoline 2-oxide [Example 62]”, for the setting “0.1 uM compound, percent decrease in rate of substrate hydrolysis relative to no inhibitor”, the “% Inhib. @ 0.1 uM” value is 34%.

As to “(3S)-[3-[(N-Benzyloxycarbonyl-L-leucyl)amino]-2-oxo-4-phenylbutyl] [3-(morpholin-4-yl)propyl](phenyl)phosphinate [Example 61]”, the “kobs/I x 10^-3 M^-1s^-1” value is on record as 17 x 10^-3 M^-1s^-1.
